Laboratory results: US10683121B2, “Method for preparation of research organisms” (BIOSYSTEMS TECHNOLOGY LIMITED, priority 2015, dated 2020)
Like-named read-outs stand apart in the source and are kept apart here.

Assays:
[1] = tested on: G. mellonella larvae; settings: in vivo
Procedure: The larvae were used within two weeks of arrival. […] Larvae in a weight range between 0.2-0.3 g and light cream in colour were selected for experiments. […] The injection was performed into the right foreleg.
Using the “bath” method, different lengths of time for decontamination were tested. Using sterile tweezers each larvae was rolled in 20 ml of 50% ethanol for 10 s, 20 s, 30 s or 60 s, patted dry with blue roll and dipped in sterile PBS. The PBS was plated on LB agar; plates and G. mellonella larvae were incubated at 37° C. for 24 h. The health of larvae was monitored and contaminants on the plates counted.
Further concentrations and decontamination treatment periods were studied. In each case, ten Galleria larvae were used, placed into a sterile mesh tray and immersed using the “dip” method into isopropyl alcohol, methanol or ethanol, prepared to varying concentrations by dilution with sterile water as described above. The treatment conditions were:
These contaminants can be introduced into the larva haemolymph through the injection point when challenging larvae. We believe that the deaths we have seen in past experiments in control groups challenged with PBS was a consequence of the introduction of this microbial flora into the body cavity of the larvae. Deaths in control groups can make the interpretation of results from test groups difficult. Therefore, the plan in this study was to identify a way of surface decontaminating the larvae, so that deaths in control groups were avoided, and therefore improving the quality of the data obtained from experiments using G. mellonella larvae. Galleria larvae are scored as dead when there is no movement when gently probed with a pipette tip. Colour is also an indicator of a response to infection or injury as such larvae produce melanin which creates a colour change of cream to pale or dark brown (4).

[2] = tested on: culturable microorganisms on the surface of G. mellonella larvae; assay: Measurement of surface contamination of larvae after alcohol decontamination (PBS wash plated on LB agar); assay type: cell-based; settings: for percentage reduction in surface contaminants compared to control: n=10 (FIG. 1)
Procedure: Individual G. mellonella larva from groups of 10 were immersed thrice into 1 ml of PBS using sterilised forceps. The PBS wash was serially diluted, plated onto Luria Broth (LB) agar and incubated at 37° C. for 24 h. Any colonies of organisms visible after this period were counted. They may optionally be identified to species level, for example by use of 16S RNA sequencing. Ethanol was diluted with sterile water to 70% or 50% (v/v). We tested two different decontamination techniques. […] To assess the microbial flora after decontamination, we used the PBS washing method outlined above. Using the “bath” method, different lengths of time for decontamination were tested. […] The PBS was plated on LB agar; plates and G. mellonella larvae were incubated at 37° C. for 24 h. The health of larvae was monitored and contaminants on the plates counted. Further concentrations and decontamination treatment periods were studied. In each case, ten Galleria larvae were used, placed into a sterile mesh tray and immersed using the “dip” method into isopropyl alcohol, methanol or ethanol, prepared to varying concentrations by dilution with sterile water as described above. The treatment conditions were: Larvae were patted dry on paper towel and grasped with sterile forceps dip larvae individually into PBS three times, for measurement of surface contamination as described above.

[3] = tested on: G. mellonella larvae; settings: single 20 s bath exposure to 50% (v/v), 24 hours
Procedure: Final instar G. mellonella larvae were obtained from Live Foods UK and kept on woodchip at 15° C. until use. The larvae were used within two weeks of arrival. The Galleria larvae were screened for colour, weight and size before use. Larvae in a weight range between 0.2-0.3 g and light cream in colour were selected for experiments. Injections were carried out using a Hamilton syringe with 5 μl dispenser; 10 μl of inoculum was used per larva in each injection. The injection was performed into the right foreleg. Phosphate Buffer Saline (PBS, pH 7.2) was used as a control inoculum as it should not kill or harm the larvae.
We injected larvae with PBS before or after decontamination. […] For the second group, only 10 μl PBS was injected into the right foreleg, with no preliminary decontamination. All larvae were placed into an incubator at 37° C. for 24 h and monitored for health and survival.
Finally, we investigated whether decontamination of the larvae improved the survival of larvae which were subsequently injected with PBS. […] These larvae were dried and then injected 10 μl PBS into the right foreleg. The larvae were placed at 37° C. and survival recorded over the next 24 hours.

CCO [Ethanol, ethanol] was tested, and the “larval survival 24 hrs” value ([1]; Galleria mellonella, 40 %) was 10/10, the “larval survival 24 hrs” value ([1]; Galleria mellonella, 50 %) was 10/10 and the “larval survival 24 hrs” value ([1]; Galleria mellonella, 60 %) was 10/10. The “larval survival 48 hrs” value ([1]; Galleria mellonella, 48 h, 40 %) was 10/10, the “larval survival 48 hrs” value ([1]; Galleria mellonella, 48 h, 50 %) was 10/10 and the “Observations at 48 h (death)” value ([1]; Galleria mellonella, 48 h, 50 % (v/v)) was 15% death. For the same compound, the “larval survival 72 hrs” value ([1]; Galleria mellonella, 40 %) was 10/10, the “larval survival 72 hrs” value ([1]; Galleria mellonella, 50 %) was 10/10 and the “Observations at 48 h” value [1] was “No death or pigment change”. For the same compound, the “% reduction in microbial surface contamination” value (“% reduction” below) ([2]; 40%, 20 s immersion (dip)) was 95.7%, the “% reduction” value ([2]; 40%, 40 s immersion (dip)) was 99.2% and the “percentage reduction in surface contaminants compared to control” value (“percentage reduction” for short) ([2]; 50% ethanol, bath technique) was 99.99%. The “percentage reduction” value ([2]; 50% ethanol, dip technique) was 99.99%, the “% reduction” value ([2]; 50%, 20 s immersion (dip)) was 99.0% and the “% reduction” value ([2]; 50%, 40 s immersion (dip)) was 98.9%. The “% reduction” value ([2]; 50%, 50 s immersion (dip)) was 99.4%, the “% reduction” value ([2]; 60%, 20 s immersion (dip)) was 98.4% and the “% reduction” value ([2]; 60%, 40 s immersion (dip)) was 99.1%. The “percentage reduction” value ([2]; 70% ethanol, bath technique) was 99.98%, the “percentage reduction” value ([2]; 70% ethanol, dip technique) was 99.52% and the “groups of larvae with 100% survival after PBS injection” value ([3]; 10 μl PBS into right foreleg, 37° C., groups of 10) was 19/20. For the same compound, the “reduction in deaths versus un-decontaminated larvae injected with PBS” value ([3]; PBS injection) was 83%.
With CC(C)O [Isopropyl alcohol, isopropanol] the “% reduction” value ([2]; 50%, 20 s immersion (dip)) was 99.9%, the “% reduction” value ([2]; 50%, 40 s immersion (dip)) was 99.9% and the “% reduction” value ([2]; 70%, 20 s immersion (dip)) was 99.9%. The “% reduction” value ([2]; 70%, 40 s immersion (dip)) was 99.8%.
For CO [Methanol, methanol], the “% reduction” value ([2]; 50%, 20 s immersion (dip)) was 99.0%, the “% reduction” value ([2]; 50%, 40 s immersion (dip)) was 99.7% and the “% reduction” value ([2]; 70%, 20 s immersion (dip)) was 99.9%. For the same compound, the “% reduction” value ([2]; 70%, 40 s immersion (dip)) was 99.9%.
